Assay results published in US20250282799A1, “SUBSTITUTED PYRIDO[4,3-d]PYRIMIDINES AS KRAS MODULATORS” (Alterome Therapeutics, Inc., priority 2023, published 2025).

Tested on: KRAS G12V dependent lung adenocarcinoma cell line, NCI-H441
Assay: Cellular pERK (Thr202/Tyr204) FRET/HTRF assay
Type: cell-based
Details: Homo sapiens, NCI-H441, cellular pERK (Thr202/Tyr204) HTRF, NCI-H441 cells
Outline: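 Adherent NCI-H441 cells, plated the previous night, receive test compound for one hour at 37 °C. They are then lysed with a buffer containing phosphatase inhibitors and incubated at room temperature with Eu3+-cryptate and d2 labelled anti-pERK antibodies. HTRF signal gives IC50 by curve fitting.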

Structure (SMILES)	IC50
[2H]C([2H])([2H])Oc1c(F)c(F)c(F)c2cc(N)cc(-c3ncc4c(N5CCOC[C@H]6[C@H](F)[C@H]65)nc(OC[C@@]56CCCN5CC(=C)C6)nc4c3F)c12 [Example 125, 6,7,8-trifluoro-4-(8-fluoro-4-((1S,7S,8S)-8-fluoro-5-oxa-2-azabicyclo[5.1.0]octan-2-yl)-2-(((S)-2-methylenetetrahydro-1H-pyrrolizin-7a(5H)-yl)methoxy)pyrido[4,3-d]pyrimidin-7-yl)-5-(methoxy-d3)naphthalen-2-amine]	< 0.05 µM
[2H]C([2H])(Oc1nc(N2CCOC[C@H]3[C@H](F)[C@H]32)c2cnc(-c3cncc4ccc(F)c(OCF)c34)c(F)c2n1)[C@@]12CCCN1C[C@H](F)C2 [Example 126, (1S,7S,8S)-8-Fluoro-2-(8-fluoro-7-(6-fluoro-5-(fluoromethoxy)isoquinolin-4-yl)-2-(((2R,7aS)-2-fluorotetrahydro-1H-pyrrolizin-7a(5H)-yl)methoxy-d2)pyrido[4,3-d]pyrimidin-4-yl)-5-oxa-2-azabicyclo[5.1.0]octane]	< 0.05 µM
[2H]C([2H])(F)Oc1c(F)ccc2cncc(-c3ncc4c(N5CCOC[C@H]6[C@H](F)[C@H]65)nc(OC([2H])([2H])[C@@]56CCCN5C[C@H](F)C6)nc4c3F)c12 [Example 127, (1S,7S,8S)-8-Fluoro-2-(8-fluoro-7-(6-fluoro-5-(fluoromethoxy-d2)isoquinolin-4-yl)-2-(((2R,7aS)-2-fluorotetrahydro-1H-pyrrolizin-7a(5H)-yl)methoxy-d2)pyrido[4,3-d]pyrimidin-4-yl)-5-oxa-2-azabicyclo[5.1.0]octane]	0.5 to 10 µM
[2H]C([2H])(F)Oc1c(F)c(F)c(F)c2cc(N)cc(-c3ncc4c(N5CCOC[C@H]6[C@H](F)[C@H]65)nc(OC([2H])([2H])[C@@]56CCCN5C[C@H](F)C6)nc4c3F)c12 [Example 128, 6,7,8-trifluoro-4-(8-fluoro-4-((1S,7S,8S)-8-fluoro-5-oxa-2-azabicyclo[5.1.0]octan-2-yl)-2-(((2R,7aS)-2-fluorotetrahydro-1H-pyrrolizin-7a(5H)-yl)methoxy-d2)pyrido[4,3-d]pyrimidin-7-yl)-5-(fluoromethoxy-d2)naphthalen-2-amine]	< 0.05 µM
C#Cc1c(F)ccc2cccc(-c3ncc4c(N5CCOC[C@H]6[C@H](F)[C@H]65)nc(OC[C@@]56CCCN5C/C(=C/F)C6)nc4c3F)c12 [Example 129, (1S,7S,8S)-2-(7-(8-Ethynyl-7-fluoronaphthalen-1-yl)-8-fluoro-2-(((S,E)-2-(fluoromethylene)tetrahydro-1H-pyrrolizin-7a(5H)-yl)methoxy)pyrido[4,3-d]pyrimidin-4-yl)-8-fluoro-5-oxa-2-azabicyclo[5.1.0]octane]	< 0.05 µM
C#Cc1c(F)ccc2cccc(-c3ncc4c(N5CCOC[C@H]6[C@H](F)[C@H]65)nc(OC[C@@]56CCCN5C/C(=C\F)C6)nc4c3F)c12 [Example 130, (1S,7S,8S)-2-(7-(8-Ethynyl-7-fluoronaphthalen-1-yl)-8-fluoro-2-(((S,Z)-2-(fluoromethylene)tetrahydro-1H-pyrrolizin-7a(5H)-yl)methoxy)pyrido[4,3-d]pyrimidin-4-yl)-8-fluoro-5-oxa-2-azabicyclo[5.1.0]octane]	< 0.05 µM
[2H]C([2H])([2H])Oc1c(F)cc(F)c2cc(N)cc(-c3ncc4c(N5CCOC[C@H]6[C@H](F)[C@H]65)nc(OC([2H])([2H])[C@@]56CCCN5C[C@H](F)C6)nc4c3F)c12 [Example 131, 6,8-difluoro-4-(8-fluoro-4-((1S,7S,8S)-8-fluoro-5-oxa-2-azabicyclo[5.1.0]octan-2-yl)-2-(((2R,7aS)-2-fluorotetrahydro-1H-pyrrolizin-7a(5H)-yl)methoxy-d2)pyrido[4,3-d]pyrimidin-7-yl)-5-(methoxy-d3)naphthalen-2-amine]	< 0.05 µM
[2H]C([2H])([2H])Oc1c(F)c(F)c(F)c2cc(N)cc(-c3ncc4c(N5CCOC[C@H]6[C@H](F)[C@H]65)nc(OC[C@@]56CCCN5C/C(=C/F)C6)nc4c3F)c12 [Example 132, 6,7,8-trifluoro-4-(8-fluoro-4-((1S,7S,8S)-8-fluoro-5-oxa-2-azabicyclo[5.1.0]octan-2-yl)-2-(((S,E)-2-(fluoromethylene)tetrahydro-1H-pyrrolizin-7a(5H)-yl)methoxy)pyrido[4,3-d]pyrimidin-7-yl)-5-(methoxy-d3)naphthalen-2-amine]	< 0.05 µM
[2H]C([2H])([2H])Oc1c(F)c(F)c(F)c2cc(N)cc(-c3ncc4c(N5CCOC[C@H]6[C@H](F)[C@H]65)nc(OC[C@@]56CCCN5C/C(=C\F)C6)nc4c3F)c12 [Example 133, 6,7,8-trifluoro-4-(8-fluoro-4-((1S,7S,8S)-8-fluoro-5-oxa-2-azabicyclo[5.1.0]octan-2-yl)-2-(((S,Z)-2-(fluoromethylene)tetrahydro-1H-pyrrolizin-7a(5H)-yl)methoxy)pyrido[4,3-d]pyrimidin-7-yl)-5-(methoxy-d3)naphthalen-2-amine]	< 0.05 µM
C#Cc1c(F)ccc2cc(N)cc(-c3ncc4c(N5CCOC[C@H]6[C@H](F)[C@H]65)nc(OC[C@@]56CCCN5CC(=C(F)F)C6)nc4c3F)c12 [Example 134, 4-(2-(((S)-2-(difluoromethylene)tetrahydro-1H-pyrrolizin-7a(5H)-yl)methoxy)-8-fluoro-4-((1S,7S,8S)-8-fluoro-5-oxa-2-azabicyclo[5.1.0]octan-2-yl)pyrido[4,3-d]pyrimidin-7-yl)-5-ethynyl-6-fluoronaphthalen-2-amine]	< 0.05 µM
[2H]C([2H])(F)Oc1c(F)c(F)cc2cncc(-c3ncc4c(N5CCOC[C@H]6[C@H](F)[C@H]65)nc(OC([2H])([2H])[C@@]56CCCN5C[C@H](F)C6)nc4c3F)c12 [Example 135, (1S,7S,8S)-2-(7-(6,7-difluoro-5-(fluoromethoxy-d2)isoquinolin-4-yl)-8-fluoro-2-(((2R,7aS)-2-fluorotetrahydro-1H-pyrrolizin-7a(5H)-yl)methoxy-d2)pyrido[4,3-d]pyrimidin-4-yl)-8-fluoro-5-oxa-2-azabicyclo[5.1.0]octane]	< 0.05 µM
[2H]C([2H])([2H])Oc1c(F)c(F)cc2cncc(-c3ncc4c(N5CCOC[C@H]6[C@H](F)[C@H]65)nc(OC([2H])([2H])[C@@]56CCCN5C[C@H](F)C6)nc4c3F)c12 [Example 136, (1S,7S,8S)-2-(7-(6,7-difluoro-5-(methoxy-d3)isoquinolin-4-yl)-8-fluoro-2-(((2R,7aS)-2-fluorotetrahydro-1H-pyrrolizin-7a(5H)-yl)methoxy-d2)pyrido[4,3-d]pyrimidin-4-yl)-8-fluoro-5-oxa-2-azabicyclo[5.1.0]octane]	0.05 to 0.5 µM
[2H]C([2H])(F)Oc1c(F)cc(F)c2cc(N)cc(-c3ncc4c(N5CCOC[C@H]6[C@H](F)[C@H]65)nc(OC([2H])([2H])[C@@]56CCCN5C[C@H](F)C6)nc4c3F)c12 [Example 139, 6,8-difluoro-4-(8-fluoro-4-((1S,7S,8S)-8-fluoro-5-oxa-2-azabicyclo[5.1.0]octan-2-yl)-2-(((2R,7aS)-2-fluorotetrahydro-1H-pyrrolizin-7a(5H)-yl)methoxy-d2)pyrido[4,3-d]pyrimidin-7-yl)-5-(fluoromethoxy-d2)naphthalen-2-amine]	< 0.05 µM
